Measurements from patent publication US10450327B2, “Epidithiodioxopiperazine compound or its derivatives, and the use thereof” (priority 2011, dated 2019).

What was measured:
[1] = test system: yeast thioredoxin (Trx) / yeast thioredoxin reductase (TR) system; test: Peroxidase activity assay (hydrogen peroxide reduction), Trx/TR system; assay type: biochemical; conditions: 25 μM ETP compound, 30° C., NADPH oxidation at 340 nm
Method: The peroxidase activity assay for the epidithiodioxopiperazine derivatives according to the present invention (hereinafter, referred to as ETP compounds) was performed according to known methods [Korean Patent No. 10-0953326]. A standard peroxidase reaction for spectrophotometric assay was carried out using a 200 μl reaction mixture of 1 mM EDTA-containing 50 mM Hepes-NaOH buffer solution (pH 7.0) including 250 μM NADPH, 3 μM yeast thioredoxin (Trx), 1.5 μM yeast thioredoxin reductase (TR), 25 μM ETP compound and […] of hydrogen peroxide. For the comparison with a glutathione (GSH)-dependent peroxidase reaction, GSH (1 mM) and yeast glutathione reductase (GSH reductase; GR) (1 Unit) were added instead of yeast Trx and TR. Each reaction was initiated by adding hydrogen peroxide, and the NADPH oxidation was monitored for 12 minutes at 30° C. according to absorbance decrease at 340 nm using an Agilent UV8453 spectrophotometer (Hewlett Packard, USA). The initial reaction rate was calculated using the linear portion of the curve and expressed as the amount of NADPH oxidized per minute.
The chemical feature of the epidithiodioxopiperazine compound of the present invention or its derivatives is the intramolecular disulfide bridge present in the epidithiodioxopiperazine ring moiety. Cellular peroxidase reduces hydrogen peroxide utilizing the electrons derived from NADPH via two electron-transfer routes, that is, Trx/TR or GSH/GR, therefore, spectrophotometric assay was performed for the hydrogen peroxide-reducing activity in the presence of each system, and the results are shown in FIGS. 1 to 5.

NADPH oxidase (NOX) = test: NADPH oxidase activity assay (whole cell superoxide production); assay type: cell-based, human; conditions: HASMCs with PDGF-B and HAECs with VEGF-A; until concentrations increased up to 500 nM
Method: Whole cell superoxide production was measured using an enhanced luminescence system (Diogenes, National Diagnostics). For the assay, the serum-starved cells were pre-incubated with a 100 μl Diogene reagent at 37° C. for 5 minutes. After being stimulated by the indicated growth factor, chemiluminescence was detected every second for 10 minutes with a TD-20/20 Luminometer (Turner Biosystems).
When HASMCs and HAECs were stimulated with PDGF-B and VEGF-A, respectively, the NOX activity increased approximately twofold. […] Thus, it was seen that these ETP compounds function as hydrogen peroxide reductase capable of replacing PrxII in both vascular cells, but the mechanism was not the inhibition of hydrogen peroxide producer NOX.

SK-MEL-28 (SK28) cells = test: Melanoma proliferation and migration assay, SK28; assay type: cell-based, human; conditions: 100 nM, 1 hour pretreatment
Method: The extent of cell proliferation was measured using a WST-1 cell proliferation assay kit (Roche Diagnostics, USA) according to the protocol of the manufacturer. The number of cells was expressed as an absorbance value at 450 nm averaged from 3 wells after subtracting the turbidity at 600 nm. The chemotactic transmigration assay was performed in a 24-well Transwell culture chamber (Costar; polycarbonate membrane insert with 8-μm pore size). The bottom of the insert was coated with gelatin B (1 mg/ml) and air-dried for 1 hour. Retroviruses or transfection complexes were treated to melanoma cells (6×10^3). After 24 hours, the infected or transfected melanoma cells were serum-starved for 18 hours. A 20% FBS solution was added to bottom chambers including a basal medium containing 0.5% BSA. The upper chamber wells were each filled with a basal medium including 0.5% BSA. The Transwell chamber was incubated for 12 hours in a 37° C./5% CO2 incubator. After the incubation, the non-migrating cells at the top of the filter were removed. The cells that migrated onto the bottom of filter were fixed and stained with 0.6% hematoxylin and 0.5% eosin. The stained cells were photographed and counted. The number of migrating cells was averaged from 3 wells. […]

B16F10 melanoma cells = test: Metastasis of B16F10 melanoma cells to lung in mouse; assay type: in vivo
Method: After B16F10 cells were temporarily transfected with PrxII siRNA for 24 hours and trypsinized, the cells were resuspended in a Hank's balanced salt solution (HBSS). The cell suspension was injected by intravenous injection to a C57/BL6 mouse (1×10^6 cells per mouse). The mouse was sacrified after 10 days, and the lung was removed after transcardia perfusion-fixation with a heparinized saline solution including 3.7% formaldehyde. The removed lung was paraffin embedded and sectioned using a rotary microtome (Leica RM2255). Two serial tissue sections (4 μm in thickness) were stained with haematoxylin and eosin. The melanoma tumor nodules metastasized from the surface of the lung and the HE-stained tissue sections were counted. In order to verify the effects of gliotoxin (GT), chaetocin and chetomin, the melanoma cells were intravenously injected to the C57/BL6 mouse, and then gliotoxin (300 mg/kg) was intraperitoneally injected for 5 times over 10 days.

[2] = test system: left carotid artery of a PrxII−/− mouse; test: Wire-injured carotid artery of PrxII−/− mouse; assay type: in vivo; conditions: filter paper strip soaked in GT solution, 30 minutes; 10th day after injury
Method: In addition, in order to identify the effects of GT on vascular thickening in a PrxII−/− mouse, left carotid artery of a PrxII−/− mouse was damaged using a flexible wire. After the injury, a Whatman No. 1 filter paper strip was soaked in a control vehicle or a GT solution, and the paper was attached to the surface of vascular epithelia for 30 minutes for the solution to permeate into the tissue. The mouse was recovered at the 10th day after the injury. As a result, the ratio of intima versus media measured from the HE-stained carotid artery sample was presented as mean+− standard error (n=8 per group, *p<0.01).

HASMCs = assay type: cell-based, human; conditions: up to 100 nM (200 nM for A4, A7, A9)
[3] = test system: PrxII knocked down HASMCs; test: Intracellular hydrogen peroxide (DCF fluorescence), PrxII knocked down HASMCs; assay type: cell-based, human; conditions: concentration-dependent
Method: First, the ability of GT to eliminate intracellular hydrogen peroxide in PrxII knocked down HASMCs and HAECs was tested. The cellular hydrogen peroxide production was monitored using an oxidant-sensitive fluorescence dye (2′,7′-dihydro-chlorofluorescein diacetate, H2DCF-DA).

CN1C(=O)[C@]23CC4=CC=C[C@H](O)[C@H]4N2C(=O)[C@@]1(CO)SS3 [gliotoxin]
hydrogen peroxide-reducing activity in the presence of a Trx/TR system [1]: 3.72 ± 0.53 nmol/min
NOX activity (NADPH oxidase (NOX)): did not inhibit
proliferation and migration responding to serum stimulation, SK28 (SK-MEL-28 (SK28) cells): reduced
metastasis of B16F10 melanoma cells to lung (tumor nodules) (B16F10 melanoma cells; i.p. 5 times over 10 days after i.v. injection of B16F10 cells): significantly reduced
metastasis of PrxII-knocked down B16F10 to lung (B16F10 melanoma cells; mPrx2-1 siRNA-transfected cells, i.p. 5 times over 10 days): more significantly reduced
vascular thickening (ratio of intima versus media) [2]: markedly reduced
proliferation and chemotactic transmigration of HASMCs in response to PDGF, enhanced by PrxII knockdown (HASMCs): gradually reduced
level of intracellular hydrogen peroxide increased by PDGF and PrxII knockdown [3]: completely canceled out
